SMILES strings stand for the structures. ≈ marks a conversion by molar mass, not a printed value. Where a name gives a salt, the structure may show the parent alone.

A short description of one data set: physchem. The note with it: 20 °C, water, thermodynamic from solid.
Procedure: The water solubility of the pharmacologically active ingredient was determined by the method described in the Japanese Pharmacopoeia, the General Rule 13, Paragraph 23.
By solubility is commonly meant the concentration that dissolves in the medium under given conditions. A high value points to much dissolved substance. As for `CN(C)C(=O)C(CCN1CCC(O)(c2ccc(Cl)cc2)CC1)(c1ccccc1)c1ccccc1` [loperamide hydrochloride], the solubility at 30 min was roughly 1 mg/mL.

Still in this data set, the particulars now being: water, 20 °C, thermodynamic from solid.
`O=c1[nH]c2ccccc2n1CCCN1CCC(n2c(=O)[nH]c3cc(Cl)ccc32)CC1` [domperidone]: the solubility at 30 min was roughly 0.002 mg/mL (≈ 4.7 µM).

For the compound `NC(N)=Nc1nc(CSCCC(N)=NS(N)(=O)=O)cs1` [famotidine], the solubility at 30 min is roughly 0.7 mg/mL (≈ 2070 µM).

Compound `C[C@H](CS)C(=O)N1CCC[C@H]1C(=O)O` [captopril] showed a solubility at 30 min of roughly 60 mg/mL (≈ 276000 µM).

In turn, `Nc1c(Br)cc(Br)cc1CN[C@H]1CC[C@H](O)CC1` [ambroxol hydrochloride] registered a solubility at 30 min of roughly 20 mg/mL.

With `COc1ccc(OC)c(C(O)CNC(=O)CN)c1` (stereo not drawn) [midodrine hydrochloride], the solubility at 30 min is roughly 100 mg/mL.

The values are drawn from patent publication US20040122106A1, “Tablets quickly disintegrating in oral cavity” (priority 2001, published 2004).
